From patent publication US20220017866A1, “PRODUCTION METHODS FOR MEGAKARYOCYTES AND PLATELETS” (KYOTO UNIVERSITY, priority 2013, published 2022)
Where a SMILES comes first, the peptide text is derived from it. The star is where a group is joined. Cbz = O=C(OCc1ccccc1)*; CH2F = FC*

Assays:
[1] = tested on: c-MYC-DD-2A-BMI1-introduced cells
Method: (§1) Therefore, the activity of caspase-3/7 in the presence of Shield-1 was then measured.

caspase-3/7 = experiment: Caspase-3/7 activity in the presence of Shield-1; format: cell-based, human; conditions: Day 2
Method: as §1

[2] = tested on: megakaryocytic progenitor cells; experiment: Expanding culture of c-Myc and BMI1-introduced cells with caspase inhibitor added in place of BCL-XL; format: cell-based, human; conditions: 30 μM added after c-Myc and BMI1 introduction; culture for 66 days
Method: In place of expressing BCL-XL, another method for controlling caspase was investigated as follows. After c-Myc and BMI1 were introduced, a caspase inhibitor, i.e., Z-VAD FMK (Merck) (10 μM or 30 μM) was added. In this condition, culture was continued for 66 days. When BCL-XL was expressed, the cells proliferated by 64 times; whereas when 30 μM of Z-VAD FMK was added, the cells proliferated by 21 times (FIG. 10). In contrast, when DMSO was used (negative control), no proliferation was observed. Furthermore, when DMSO was used, the number of Annexin V positive cells was counted. As a result, many Annexin V positive cells were present (66.5%). From this, it was confirmed that apoptosis was not suppressed.

Structure (SMILES) | toxic effect [1] | number of megakaryocytic progenitor cells ([1]; c-MYC expression stabilized by adding Shield-1, Day 7) | activity of caspase-3/7 (caspase-3/7) | cell proliferation [2]
CC[C@H](C(=O)N1CCCC[C@H]1C(=O)O[C@H](CCc1ccc(OC)c(OC)c1)c1cccc(OCCN2CCOCC2)c1)c1cc(OC)c(OC)c(OC)c1 [Shield-1] | did not have toxic effect | decreased in volume-dependent manner | caspase was activated | 
COC(=O)C[C@H](NC(=O)[C@H](C)NC(=O)[C@@H](NC(=O)OCc1ccccc1)C(C)C)C(=O)CF [Z-VAD FMK] (Cbz-Val-Ala-Asp(OMe)-CH2F) |  |  |  | 21 times
